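Test compounds were applied to cells in 96-well plates for 48 hours at 5 doses. At the TGI there is no net growth.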
What was measured:
Assay in all cases: NCI anticancer screen, dose series, 48 h
HCT-116 colon = tested on: HCT-116 colon
KM12 colon = tested on: KM12 colon
CCRF-CEM leukemia = tested on: CCRF-CEM leukemia
TK-10 renal = tested on: TK-10 renal
NCI-H23 lung = tested on: NCI-H23 lung
MALME-3M melanoma = tested on: MALME-3M melanoma
SN12C renal = tested on: SN12C renal
K-562 leukemia = tested on: K-562 leukemia
HOP-18 NSCLC = tested on: HOP-18 NSCLC
CAKI-1 renal = tested on: CAKI-1 renal
DLD-1 colon = tested on: DLD-1 colon
COLO 205 colon = tested on: COLO 205 colon
SNB-78 CNS = tested on: SNB-78 CNS
SK-MEL-2 melanoma = tested on: SK-MEL-2 melanoma
786-0 renal = tested on: 786-0 renal
SF-268 CNS = tested on: SF-268 CNS
HOP-62 NSCLC = tested on: HOP-62 NSCLC
KM20L2 colon = tested on: KM20L2 colon
SK-MEL-28 melanoma = tested on: SK-MEL-28 melanoma
M19-MEL melanoma = tested on: M19-MEL melanoma
SF-539 CNS = tested on: SF-539 CNS
HT29 colon = tested on: HT29 colon
MOLT-4 leukemia = tested on: MOLT-4 leukemia
RPMI-8226 leukemia = tested on: RPMI-8226 leukemia
OVCAR-8 ovarian = tested on: OVCAR-8 ovarian
SK-MEL-5 melanoma = tested on: SK-MEL-5 melanoma
OVCAR-3 ovarian = tested on: OVCAR-3 ovarian
NCI-H522 lung = tested on: NCI-H522 lung
OVCAR-4 ovarian = tested on: OVCAR-4 ovarian
IGROV1 ovarian = tested on: IGROV1 ovarian
HCC-2998 colon = tested on: HCC-2998 colon
A498 renal = tested on: A498 renal
SNB-19 CNS = tested on: SNB-19 CNS
A549 NSCLC = tested on: A549 NSCLC
XF 498 CNS = tested on: XF 498 CNS
U251 CNS = tested on: U251 CNS
M14 melanoma = tested on: M14 melanoma
SNB-75 CNS = tested on: SNB-75 CNS
DMS 114 small cell lung = tested on: DMS 114 small cell lung
UACC-62 melanoma = tested on: UACC-62 melanoma
EKVX NSCLC = tested on: EKVX NSCLC
ACHN renal = tested on: ACHN renal
SW-620 colon = tested on: SW-620 colon
SK-OV-3 ovarian = tested on: SK-OV-3 ovarian
UO-31 renal = tested on: UO-31 renal
HCT-15 colon = tested on: HCT-15 colon
LXFL 529 NSCLC = tested on: LXFL 529 NSCLC
DMS 273 small cell lung = tested on: DMS 273 small cell lung
NCI-H460 lung = tested on: NCI-H460 lung
RXF 393 renal = tested on: RXF 393 renal
HL-60(TB) leukemia = tested on: HL-60(TB) leukemia
UACC-257 melanoma = tested on: UACC-257 melanoma
HOP-92 NSCLC = tested on: HOP-92 NSCLC
OVCAR-5 ovarian = tested on: OVCAR-5 ovarian
SF-295 CNS = tested on: SF-295 CNS
NCI-H226 lung = tested on: NCI-H226 lung
LOX IMVI melanoma = tested on: LOX IMVI melanoma
SR leukemia = tested on: SR leukemia

SMILES: O/N=C1/C(=C/c2ccc(Cl)c(Cl)c2)CCCC1C(NO)c1ccc(Cl)c(Cl)c1 (stereo unspecified)
- TGI (HCT-116 colon): 30.3 µM
- TGI (KM12 colon): 31.9 µM
- TGI (CCRF-CEM leukemia): 46.1 µM
- TGI (TK-10 renal): 36.3 µM
- TGI (NCI-H23 lung): 35.6 µM
- TGI (MALME-3M melanoma): 44.4 µM
- TGI (SN12C renal): 35.2 µM
- TGI (K-562 leukemia): 63.6 µM
- TGI (HOP-18 NSCLC): 30.5 µM
- TGI (CAKI-1 renal): 34 µM
- TGI (DLD-1 colon): 37 µM
- TGI (COLO 205 colon): 35.7 µM
- TGI (SNB-78 CNS): 37.7 µM
- TGI (SK-MEL-2 melanoma): 38.5 µM
- TGI (786-0 renal): 42.4 µM
- TGI (SF-268 CNS): 45.7 µM
- TGI (HOP-62 NSCLC): 48.2 µM
- TGI (KM20L2 colon): 35.3 µM
- TGI (SK-MEL-28 melanoma): 34.5 µM
- TGI (M19-MEL melanoma): 33.8 µM
- TGI (SF-539 CNS): 33.2 µM
- TGI (HT29 colon): 32.1 µM
- TGI (MOLT-4 leukemia): 33.8 µM
- TGI (RPMI-8226 leukemia): 53.6 µM
- TGI (OVCAR-8 ovarian): 36.7 µM
- TGI (SK-MEL-5 melanoma): 35.3 µM
- TGI (OVCAR-3 ovarian): 27.8 µM
- TGI (NCI-H522 lung): 25 µM
- TGI (OVCAR-4 ovarian): 26.7 µM
- TGI (IGROV1 ovarian): 38.5 µM
- TGI (HCC-2998 colon): 36.8 µM
- TGI (A498 renal): 27.4 µM
- TGI (SNB-19 CNS): 33.1 µM
- TGI (A549 NSCLC): 41.3 µM
- TGI (XF 498 CNS): 33.9 µM
- TGI (U251 CNS): 34.2 µM
- TGI (M14 melanoma): 34.6 µM
- TGI (SNB-75 CNS): 31.1 µM
- TGI (DMS 114 small cell lung): 37.3 µM
- TGI (UACC-62 melanoma): 35 µM
- TGI (EKVX NSCLC): 42.9 µM
- TGI (ACHN renal): 33 µM
- TGI (SW-620 colon): 36 µM
- TGI (SK-OV-3 ovarian): 39.1 µM
- TGI (UO-31 renal): 35.7 µM
- TGI (HCT-15 colon): 37.2 µM
- TGI (LXFL 529 NSCLC): 29.5 µM
- TGI (DMS 273 small cell lung): 36 µM
- TGI (NCI-H460 lung): 40 µM
- TGI (RXF 393 renal): 43.3 µM
- TGI (HL-60(TB) leukemia): 39 µM
- TGI (UACC-257 melanoma): 34.1 µM

SMILES: O=[N+]([O-])c1ccc(C2=Nn3c(nnc3-c3ccccc3)SC2)o1
- TGI (HCT-116 colon): 35.6 µM
- TGI (KM12 colon): 42.4 µM
- TGI (CCRF-CEM leukemia): 20.2 µM
- TGI (TK-10 renal): 34.5 µM
- TGI (NCI-H23 lung): 42.8 µM
- TGI (MALME-3M melanoma): 47.5 µM
- TGI (SN12C renal): 32.4 µM
- TGI (K-562 leukemia): > 100 µM
- TGI (HOP-18 NSCLC): 34.8 µM
- TGI (CAKI-1 renal): 35 µM
- TGI (DLD-1 colon): 30.2 µM
- TGI (COLO 205 colon): 49.9 µM
- TGI (SNB-78 CNS): 44.7 µM
- TGI (SK-MEL-2 melanoma): 49 µM
- TGI (786-0 renal): 40.7 µM
- TGI (SF-268 CNS): 42.8 µM
- TGI (HOP-62 NSCLC): > 100 µM
- TGI (KM20L2 colon): 53.5 µM
- TGI (SK-MEL-28 melanoma): > 100 µM
- TGI (M19-MEL melanoma): 41.1 µM
- TGI (SF-539 CNS): 39 µM
- TGI (HT29 colon): 52.8 µM
- TGI (MOLT-4 leukemia): 70.8 µM
- TGI (RPMI-8226 leukemia): > 100 µM
- TGI (OVCAR-8 ovarian): 45.9 µM
- TGI (SK-MEL-5 melanoma): 32.6 µM
- TGI (OVCAR-3 ovarian): 31.8 µM
- TGI (OVCAR-4 ovarian): 41.5 µM
- TGI (IGROV1 ovarian): 47.6 µM
- TGI (HCC-2998 colon): 35.7 µM
- TGI (A498 renal): > 100 µM
- TGI (HOP-92 NSCLC): 34.1 µM
- TGI (SNB-19 CNS): > 100 µM
- TGI (A549 NSCLC): > 100 µM
- TGI (XF 498 CNS): 38.9 µM
- TGI (OVCAR-5 ovarian): 65.8 µM
- TGI (U251 CNS): 33.7 µM
- TGI (SF-295 CNS): 31.8 µM
- TGI (M14 melanoma): 32 µM
- TGI (SNB-75 CNS): 38.9 µM
- TGI (DMS 114 small cell lung): 38.8 µM
- TGI (UACC-62 melanoma): 36.3 µM
- TGI (EKVX NSCLC): > 100 µM
- TGI (ACHN renal): 33.8 µM
- TGI (SW-620 colon): 40.5 µM
- TGI (SK-OV-3 ovarian): > 100 µM
- TGI (NCI-H226 lung): > 100 µM
- TGI (HCT-15 colon): 38.2 µM
- TGI (LXFL 529 NSCLC): 29.9 µM
- TGI (DMS 273 small cell lung): 48.7 µM
- TGI (NCI-H460 lung): 41.6 µM
- TGI (RXF 393 renal): 53.5 µM
- TGI (HL-60(TB) leukemia): 37.8 µM
- TGI (UACC-257 melanoma): 36.5 µM

SMILES: CCOc1ccc(N=Nc2ccc3oc(=O)c(/C(C)=N/NC(=O)CC(=O)Nc4cccc(OC)c4)cc3c2)cc1
- TGI (HCT-116 colon): 33.7 µM
- TGI (KM12 colon): > 56.9 µM
- TGI (CCRF-CEM leukemia): 21.6 µM
- TGI (TK-10 renal): > 100 µM
- TGI (NCI-H23 lung): 33.4 µM
- TGI (MALME-3M melanoma): 37.5 µM
- TGI (SN12C renal): 30.8 µM
- TGI (K-562 leukemia): 86.5 µM
- TGI (LOX IMVI melanoma): 60.5 µM
- TGI (HOP-18 NSCLC): 74.4 µM
- TGI (CAKI-1 renal): > 45.4 µM
- TGI (DLD-1 colon): 45.5 µM
- TGI (COLO 205 colon): 78.3 µM
- TGI (SNB-78 CNS): > 95.9 µM
- TGI (SK-MEL-2 melanoma): 45.7 µM
- TGI (786-0 renal): 22.3 µM
- TGI (SF-268 CNS): 52.5 µM
- TGI (HOP-62 NSCLC): 31.7 µM
- TGI (KM20L2 colon): > 31.6 µM
- TGI (SK-MEL-28 melanoma): 92 µM
- TGI (M19-MEL melanoma): > 88.1 µM
- TGI (SF-539 CNS): 51 µM
- TGI (MOLT-4 leukemia): > 56 µM
- TGI (RPMI-8226 leukemia): 53.7 µM
- TGI (OVCAR-8 ovarian): > 61.4 µM
- TGI (SK-MEL-5 melanoma): 58.4 µM
- TGI (OVCAR-3 ovarian): 37 µM
- TGI (NCI-H522 lung): 72.4 µM
- TGI (OVCAR-4 ovarian): 52.6 µM
- TGI (IGROV1 ovarian): 65.4 µM
- TGI (HCC-2998 colon): 30.2 µM
- TGI (HOP-92 NSCLC): 47.4 µM
- TGI (SNB-19 CNS): > 79 µM
- TGI (A549 NSCLC): > 74.6 µM
- TGI (XF 498 CNS): 42 µM
- TGI (OVCAR-5 ovarian): > 70.3 µM
- TGI (U251 CNS): 17.1 µM
- TGI (SF-295 CNS): 53.8 µM
- TGI (M14 melanoma): 77.3 µM
- TGI (DMS 114 small cell lung): 44.5 µM
- TGI (UACC-62 melanoma): 39.7 µM
- TGI (EKVX NSCLC): 55.5 µM
- TGI (ACHN renal): 51.6 µM
- TGI (SW-620 colon): 85.1 µM
- TGI (SK-OV-3 ovarian): 82.3 µM
- TGI (NCI-H226 lung): > 73 µM
- TGI (UO-31 renal): 29.5 µM
- TGI (HCT-15 colon): > 86.3 µM
- TGI (LXFL 529 NSCLC): 33.5 µM
- TGI (DMS 273 small cell lung): > 71.2 µM
- TGI (SR leukemia): 10.1 µM
- TGI (NCI-H460 lung): 46.3 µM
- TGI (RXF 393 renal): 38.1 µM
- TGI (HL-60(TB) leukemia): 16.1 µM
- TGI (UACC-257 melanoma): 22 µM
